Reference: patent US7563781B2, “Triazolopyrimidine derivatives” (Janssen Pharmaceutica NV, priority 2006, dated 2009)

Experiments:
[1] = target: T1, CAK complex (human Cdk7, human Cyclin H, MAT-1) (Homo sapiens, UniProt P50613); assay: in vitro time-resolved-fluorescence assay for the CAK kinase activity; type: biochemical; settings: compound 20 uM; read-out: CAK % inhib; 20 uM
T1 construct: made in house; host or cells: SF-900 insect cells co-infected with Flag-Cdk7 and Bab-Cyclin H baculoviruses
Source text: Cyclin Dependent Kinase Activating Kinase (CAK) is a complex of proteins that phosphorylates a well-conserved threonine (Thr) residue in all mammalian cyclin dependent kinases (cdks). The CAK complex can also phosphorylate several components of the transcriptional machinery, such as the C-terminal domain (CTD) of RNA polymerase II in the TFIIH transcription complex. The CAK complex localizes to the nucleus, and is composed of three proteins: Cdk7, Cyclin H, and MAT-1. The exemplified method teaches the cloning and expression CAK subunits, particularly a human Cdk7 and a human Cyclin H. The method of the present invention exemplified herein is equally applicable to the cloning and expression of any CAK subunit, such as variants, structural or functional polymorphisms of the human Cdk7 or the human Cyclin H, or their orthologs in other animals such as rat, mouse, pig, dog and monkey.
The CAK complex was purified from co-infected SF-900 insect cells at 48 hours post infection by batch immunoaffinity purification. The infected cells were pelleted by centrifugation and lysed in 1/10 of the culture volume in a solution containing 50 mM Hepes pH 7.5, 10 mM MgCl2, 1 mM DTT, 10 mM Beta-Glycerol phosphate, 20 uM Na-oVO4, 0.2 mM PMSF and 1 μg/mL each of leupeptin, aprotinin, and pepstatin on ice. Cells were mechanically lysed by trituration through a 22-gauge needle followed by sonication or alternately by nitrogen cavitation. The lysed cells were centrifuged at 50,000×G for 1 hour at 4° C. to remove debris and the supernatant was applied to 1/10 volume of prewashed Flag-M2 immunoaffinity resin (Sigma). The CAK complex, by nature of the Flag tagged Cdk7 protein, was allowed to bind to the Flag antibody of the resin overnight at 4° C. with gentle rocking. The resin was washed 4 times with 5 resin volumes of lysis buffer and the bound proteins were eluted by competition with 0.5 mg/mL Flag peptide ([…], American Peptide Co, Inc., SEQ ID NO: 16) in a total of 2 resin volumes. To remove the Flag peptide, the eluted material was applied to PD-10 gel filtration columns (Pharmacia) under conditions recommended by the manufacturer.
Measurement of CAK kinase activity was accomplished using an antibody methodology in which a Europium labeled antibody binds preferentially to serine phosphorylated GST-CTD substrate. The long-lived europium label fluorescence allows a greater signal-to-noise ratio due to the delay in reading the emission wavelength, thereby eliminating signals from immediate fluorescence and fluorescent pharmaceutical screening compounds.
The time-resolved-fluorescence assay for the CAK kinase activity is performed as follows. In a well of a black glutathione coated 96 well micro titer plate (Pierce Chemical, No. 15360), the following reagents were added: 1) 25 ul substrate solution containing 500 ng purified GST-CTD in a buffer having 50 mM Hepes pH 7.5, 10 mM MgCl2, 1 mM DTT, 0.2 mM PMSF, 40 uM Na-oVO4, and 22 uM ATP (as a background control, the buffer, including ATP but not substrate was added); 2) 2.5 ul of screening compounds in a diluent containing 30% DMSO/25 mM Hepes pH7.5 (As a control, the diluent only was added. Typically the final concentration of compound is 1 uM); and 3) 250 ng CAK enzyme complex in enzyme buffer containing 25 ul of 50 mM Hepes pH 7.5, 10 mM MgCl2, 1 mM DTT, 0.2 mM PMSF, and 40 uM Na-oVO4. The micro titer plate was shaken for 2 minutes on a titer plate shaker and allowed to incubate at 30° C. for 20 minutes.
Subsequently, Kinase Stop Solution (75 mM EDTA, 0.2 mM PMSF, 1 mM DTT, 120 uM Na oVO4 in PBS) was added (50 ul/well). The plate was shaken for 2 minutes and incubated overnight at room temperature to allow substrate binding to the wells. The plate contents were flicked out, and the wells of the plate were washed 4 times with 350 ul of wash buffer (Delphia wash buffer, Perkin-Elmer, Inc.). The plate was tapped dry. […]

[2] = target: T2, Focal Adhesion Kinase (full-length Flag-tagged human FAK) (Homo sapiens, UniProt Q05397); assay: in vitro FAK ELISA kinase assay; type: biochemical; settings: compound 10 uM; ATP 2 uM; read-out: FAK % Inhib ave: 10 uM
T2 construct: a purified recombinant full-length Flag-tagged human FAK protein; Flag; made in house; host or cells: baculovirus infected insect cells
Description: Compound effects on the tyrosine kinase activity of Focal Adhesion Kinase were assessed with an in vitro FAK ELISA kinase assay. This assay measures the incorporation of phosphate from ATP into a FAK substrate protein using an antibody specific for phospho-tyrosine.
500 ng of FAKsubstrate, a purified recombinant fusion protein of GST and a 73 amino acid region surrounding the Tyr397 human FAK autophosphorylation site, was coated in a high-protein binding polystyrene 96 well plate overnight in a buffer containing 50 mM Hepes, pH 7.5, 150 mM NaCl, 0.1 mM Na-oVO4, 0.1 mM NaF and 1 protease inhibitor tablet/10 mL (Complete Mini-EDTA-free, Roche). The next day this solution was removed and the wells were incubated with 0.2% BSA in 50 mM Hepes, pH 7.5, 150 mM NaCl, 0.2 mM PMSF for 1 hour at 30° C. to block unoccupied protein binding sites. The wells were then washed with 50 mM Hepes, pH 7.5, 150 mM NaCl, 0.1% Tween 20. The kinase reaction was performed with 25 ng/well of FAK enzyme (a purified recombinant full-length Flag-tagged human FAK protein made in baculovirus infected insect cells) in 0.1 mL of a buffer containing 25 mM Hepes, pH 7.5, 5 mM MgCl2, 0.5 mM MnCl2, 10 uM NaoVO4, 0.2 mM PMSF. Compounds were added from 30% DMSO stock solutions for a screening concentration of 10 uM or IC50 determinations from 50 uM in half-log dilutions. The reaction is initiated with addition of ATP to a final concentration of 2 uM and incubated at 30° C. for 1 hour. Following the kinase reaction step, the wells were washed and incubated with 50 ng of Horseradish Peroxidase conjugated anti-phosphotyrosine antibody (PT-66 HRP, Sigma) in 0.1 mL wash buffer for 1 hour at 30° C. Wells were then washed and 0.1 mL HRP substrate, Tetra-methyl Benzidine (Sigma) was added and the color reaction allowed to proceed for 2-3 minutes followed by the addition of 0.1 mL of 1N H2SO4 to stop the HRP reaction. Percent inhibition of FAK kinase activity was calculated by comparing compound containing wells to wells treated with diluent only. Background was subtracted from all wells and was defined as the activity of FAK using 500 ng/well of BSA as a substrate. IC50 values were obtained using Prism data analysis software.

T2 sequence (Q05397 whole entry): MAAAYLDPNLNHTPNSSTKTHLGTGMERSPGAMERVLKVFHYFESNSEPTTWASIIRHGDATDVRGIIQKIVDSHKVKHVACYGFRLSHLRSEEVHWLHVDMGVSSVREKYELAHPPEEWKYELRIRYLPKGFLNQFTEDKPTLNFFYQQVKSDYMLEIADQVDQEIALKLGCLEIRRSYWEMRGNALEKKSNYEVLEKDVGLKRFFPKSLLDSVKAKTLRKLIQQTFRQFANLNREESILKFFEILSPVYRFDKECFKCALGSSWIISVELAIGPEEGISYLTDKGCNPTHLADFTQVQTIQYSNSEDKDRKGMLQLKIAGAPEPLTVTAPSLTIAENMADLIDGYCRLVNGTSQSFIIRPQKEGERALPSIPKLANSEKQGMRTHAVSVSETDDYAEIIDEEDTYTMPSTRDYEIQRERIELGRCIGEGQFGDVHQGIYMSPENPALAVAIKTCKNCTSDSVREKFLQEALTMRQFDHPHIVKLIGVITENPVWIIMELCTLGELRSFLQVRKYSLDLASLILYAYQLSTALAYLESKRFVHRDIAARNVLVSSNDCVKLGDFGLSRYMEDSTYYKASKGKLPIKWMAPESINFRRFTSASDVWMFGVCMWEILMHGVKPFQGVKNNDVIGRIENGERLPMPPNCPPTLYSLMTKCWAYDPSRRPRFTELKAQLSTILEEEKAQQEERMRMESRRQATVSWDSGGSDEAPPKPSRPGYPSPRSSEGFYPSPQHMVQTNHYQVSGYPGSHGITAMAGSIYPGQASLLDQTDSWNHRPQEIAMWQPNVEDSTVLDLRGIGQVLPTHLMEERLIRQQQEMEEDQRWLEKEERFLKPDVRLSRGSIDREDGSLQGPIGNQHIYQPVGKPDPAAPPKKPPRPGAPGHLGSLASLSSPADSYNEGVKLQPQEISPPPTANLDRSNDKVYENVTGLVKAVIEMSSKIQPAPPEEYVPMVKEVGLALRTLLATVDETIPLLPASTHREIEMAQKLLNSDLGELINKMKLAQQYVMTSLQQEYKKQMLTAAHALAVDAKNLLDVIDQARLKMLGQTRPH
T1 sequence (P50613 with tags, fused parts or gaps): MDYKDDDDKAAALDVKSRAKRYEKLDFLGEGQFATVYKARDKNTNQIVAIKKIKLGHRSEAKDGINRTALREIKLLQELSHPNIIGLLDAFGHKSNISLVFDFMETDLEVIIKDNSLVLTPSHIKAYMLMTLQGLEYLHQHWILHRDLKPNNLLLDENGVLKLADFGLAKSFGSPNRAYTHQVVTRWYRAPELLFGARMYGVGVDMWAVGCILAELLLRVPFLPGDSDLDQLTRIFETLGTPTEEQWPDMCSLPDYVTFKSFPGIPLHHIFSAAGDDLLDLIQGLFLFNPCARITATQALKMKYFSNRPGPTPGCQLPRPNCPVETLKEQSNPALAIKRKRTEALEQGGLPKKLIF
T1 sequence (as listed by the source partner): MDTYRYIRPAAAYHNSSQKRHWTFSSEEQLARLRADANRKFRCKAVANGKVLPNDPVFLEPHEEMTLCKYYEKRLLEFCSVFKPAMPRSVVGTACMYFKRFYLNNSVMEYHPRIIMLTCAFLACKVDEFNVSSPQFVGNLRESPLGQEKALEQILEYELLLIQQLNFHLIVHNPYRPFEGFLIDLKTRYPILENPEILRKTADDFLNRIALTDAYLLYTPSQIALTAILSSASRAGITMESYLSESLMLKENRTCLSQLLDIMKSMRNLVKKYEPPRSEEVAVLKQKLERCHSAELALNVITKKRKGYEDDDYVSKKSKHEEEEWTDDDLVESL

Structure (SMILES)	inhibition at 20 µM [1] [%]	inhibition at 10 µM [2] [%]
CCCCNS(=O)(=O)c1cccc(-n2nnc3cnc(Nc4cc(OC)c(OC)c(OC)c4)nc32)c1 [Compound 34, N-Butyl-3-[5-(3,4,5-trimethoxy-phenylamino)-[1,2,3]triazolo[4,5-d]pyrimidin-3-yl]-benzene-sulfonamide]	19	25
CN(C)CC(O)COc1ccc(Nc2ncc3nnn(C4CCCC(C(=O)O)C4)c3n2)cc1 (stereo not shown) [Compound 31, 3-{5-[4-(3-Dimethylamino-2-hydroxy-propoxy)-phenylamino]-[1,2,3]triazolo[4,5-d]pyrimidin-3-yl}-cyclohexanecar-boxylic acid]	32.9	21.4
CCOC(=O)/C=C/c1ccc(Nc2ncc3nnn(-c4ccc5c(c4)CCC5)c3n2)cc1 [Compound 28, 3-[4-(3-Indan-5-yl-3H-[1,2,3]triazolo[4,5-d]pyrimidin-5-ylamino)-phenyl]-acrylic acid ethyl ester]	54.7	16
COc1cc(-n2nnc3cnc(Nc4cccc(S(N)(=O)=O)c4)nc32)cc(OC)c1OC [Compound 44, 3-[3-(3,4,5-Trimethoxy-phenyl)-3H-[1,2,3]triazolo[4,5-d]pyrimidin-5-ylamino]-benzene-sulfonamide]	10.2	24.7
CN(Cc1ccccc1Nc1ncc2nnn(-c3ccccc3CN(C)C3CCCCC3)c2n1)C1CCCCC1 [Compound 21, {2-[(Cyclohexyl-methyl-amino)-methyl]-phenyl}-(3-{2-[(cyclohexyl-methyl-amino)-methyl]-phenyl}-3H-[1,2,3]triazolo[4,5-d]pyrimidin-5-yl)-amine]	23.3	19
CCCCNS(=O)(=O)c1cccc(-n2nnc3cnc(Nc4ccc(C(=O)NCCN(CC)CC)cc4)nc32)c1 [Compound 49]	44.6	99.5
CNC(=O)c1cccc(-n2nnc3cnc(Nc4cccc(-c5ccnc(C)n5)c4)nc32)c1 [Compound 40, N-Methyl-3-{5-[3-(2-methyl-pyrimidin-4-yl)-phenylamino]-[1,2,3]triazolo[4,5-d]pyrimidin-3-yl}-benzamide]	-2.21	6.99
CN(C)CC(O)COc1ccc(Nc2ncc3nnn(-c4cccc(C#N)c4)c3n2)cc1 (stereo not shown) [Compound 10, 3-{5-[4-(3-Dimethylamino-2-hydroxy-propoxy)-phenylamino]-[1,2,3]triazolo[4,5-d]pyrimidin-3-yl]-benzonitrile]	11.5	64.7
CN(C)CC(O)COc1ccc(Nc2ncc3nnn(-c4ccc5c(c4)CCC5)c3n2)cc1 (stereo not shown) [Compound 1, 1-Dimethylamino-3-[4-(3-indan-5-yl-3H-[1,2,3]triazolo[4,5-d]pyrimidin-5-ylamino)-phenoxy]-propan-2-ol]	102	93.6
CCOC(=O)N1CCC(n2nnc3cnc(Nc4cccc(-c5nnn[nH]5)c4)nc32)CC1 [Compound 63, 4-{5-[3-(1H-Tetrazol-5-yl)-phenylamino]-[1,2,3]triazolo[4,5-d]pyrimidin-3-yl}-piperidine-1-carboxylic acid ethyl ester]	39.3	59.8
CN(C)CC(O)COc1ccc(Nc2ncc3nnn(-c4ccccc4)c3n2)cc1 (stereo not shown) [Compound 8, 1-Dimethylamino-3-[4-(3-phenyl-3H-[1,2,3]triazolo[4,5-d]pyrimidin-5-ylamino)-phenoxy]-propan-2-ol]	92.2	77.4
CCOC(=O)Cc1ccc(Nc2ncc3nnn(-c4ccc5c(c4)CCC5)c3n2)cc1 [Compound 25, [4-(3-Indan-5-yl-3H-[1,2,3]triazolo[4,5-d]pyrimidin-5-ylamino)-phenyl]-acetic acid ethyl ester]	21	30

Further lines, results first:

inhibition at 20 µM [1] [%]	inhibition at 10 µM [2] [%]	Structure (SMILES)
103	91.2	c1cc(OCCCN2CCCC2)ccc1Nc1ncc2nnn(-c3ccc4c(c3)CCC4)c2n1 [Compound 92, (3-Indan-5-yl-3H-[1,2,3]triazolo[4,5-d]pyrimidin-5-yl)-[4-(3-pyrrolidin-1-yl-propoxy)-phenyl]-amine]
33.9	29.1	CCOC(=O)N1CCC(n2nnc3cnc(Nc4ccc(C(=O)NCCN(CC)CC)cc4)nc32)CC1 [Compound 64, 4-{5-[4-(2-Diethylamino-ethylcarbamoyl)-phenylamino]-[1,2,3]triazolo[4,5-d]pyrimidin-3-yl}-piperidine-1-carboxylic acid ethyl ester]
5.06	13.5	OCCCOc1ccc(Nc2ncc3nnn(-c4ccc5c(c4)CCC5)c3n2)cc1 [Compound 82, 3-[4-(3-Indan-5-yl-3H-[1,2,3]triazolo[4,5-d]pyrimidin-5-ylamino)-phenoxy]-propan-1-ol]
-11.4	27	CCN(CC)CCNC(=O)c1ccc(Nc2ncc3nnn(Cc4ccc(N(C)C)cc4)c3n2)cc1 [Compound 69, N-(2-Diethylamino-ethyl)-4-[3-(4-dimethylamino-benzyl)-3H-[1,2,3]triazolo[4,5-d]pyrimidin-5-ylamino]-benzamide]
86.6	80	O=C(NCCCn1ccnc1)c1cccc(Nc2ncc3nnn(-c4ccc5c(c4)CCC5)c3n2)c1 [Compound 79, N-(3-Imidazol-1-yl-propyl)-3-(3-indan-5-yl-3H-[1,2,3]triazolo[4,5-d]pyrimidin-5-ylamino)-benzamide]
